Source: ChEMBL document CHEMBL3885861, “Open TG-GATES”

Species on record: Rattus norvegicus
Assay: Open TG-GATES - Regimen: Single
Type: toxicity, organism-based, Sprague-Dawley
Parameters: regimen Single, gender Male, age 6 weeks
Conditions: in vivo, po, route gavage; for APTT / Bas / Eos / Fbg / Hb / Ht / Lym / MCH / MCHC / MCV / Mono / Neu / PT / Plat / RBC / Ret / WBC: tissue Blood; for KIDNEY_L / KIDNEY_R / KIDNEY_TOTAL: tissue Kidney; for LIVER: tissue Liver; for A/G / ALP / ALT / AST / BUN / CRE / Ca / Cl / DBIL / GLC / IP / K / LDH / Na / PL / RALB / TBIL / TC / TG / TP / gamma-GTP: tissue Plasma
[1] = 0 mg/kg, 3 h, dose level Control
[2] = 0 mg/kg, 6 h, dose level Control
[3] = 0 mg/kg, 9 h, dose level Control
[4] = 0 mg/kg, 24 h, dose level Control

## O=NN(CCCl)C(=O)NC1CCCCC1 [LOMUSTINE]
[1]
  TERMINAL_BW: 205.6 g
  APTT: 16.5 s
  Bas: 0%
  Eos: 0.6%
  Fbg: 207.8 mg/dL
  Hb: 13 g/dL
  Ht: 39.5%
  Lym: 82%
  MCH: 21.7 pg
  MCHC: 32.9%
  MCV: 66 fL
  Mono: 6.4%
  Neu: 11.2%
  PT: 11 s
  Plat: 100.4 x10_4/uL
  RBC: 599.2 x10_4/ul
  Ret: 8.5%
  WBC: 134.2 x10_2/uL
  KIDNEY_L: 0.9 g
  KIDNEY_R: 0.9 g
  KIDNEY_TOTAL: 1.9 g
  LIVER: 10 g
  A/G: 2
  ALP: 881.4 IU/L
  ALT: 36.4 IU/L
  AST: 66.4 IU/L
  BUN: 14.6 mg/dL
  CRE: 0.6 mg/dL
  Ca: 11.3 mg/dL
  Cl: 106.4 meq/L
  DBIL: 0.072 mg/dL
  GLC: 187 mg/dL
  IP: 9.5 mg/dL
  K: 5 meq/L
  LDH: 89.6 IU/L
  Na: 139.8 meq/L
  PL: 134.4 mg/dL
  RALB: 3.7 g/dL
  TBIL: 0.3 mg/dL
  TC: 76.4 mg/dL
  TG: 50.2 mg/dL
  TP: 5.6 g/dL
  gamma-GTP: 1.4 IU/L
[2]
  TERMINAL_BW: 200.9 g
  APTT: 17.4 s
  Bas: 0%
  Eos: 0.6%
  Fbg: 218.2 mg/dL
  Hb: 13.6 g/dL
  Ht: 41.3%
  Lym: 72%
  MCH: 22 pg
  MCHC: 32.9%
  MCV: 66.7 fL
  Mono: 6.6%
  Neu: 20.6%
  PT: 12.2 s
  Plat: 106.2 x10_4/uL
  RBC: 619.2 x10_4/ul
  Ret: 8.9%
  WBC: 71.6 x10_2/uL
  KIDNEY_L: 1 g
  KIDNEY_R: 1 g
  KIDNEY_TOTAL: 2 g
  LIVER: 9.4 g
  A/G: 2
  ALP: 849.6 IU/L
  ALT: 28.2 IU/L
  AST: 66 IU/L
  BUN: 10.2 mg/dL
  CRE: 0.5 mg/dL
  Ca: 11.1 mg/dL
  Cl: 103.4 meq/L
  DBIL: 0.01 mg/dL
  GLC: 189.6 mg/dL
  IP: 11.2 mg/dL
  K: 5.6 meq/L
  LDH: 116.4 IU/L
  Na: 141.2 meq/L
  PL: 141.6 mg/dL
  RALB: 3.7 g/dL
  TBIL: 0.3 mg/dL
  TC: 78.8 mg/dL
  TG: 50.6 mg/dL
  TP: 5.7 g/dL
  gamma-GTP: 1 IU/L
[3]
  TERMINAL_BW: 199.9 g
  APTT: 16.9 s
  Bas: 0%
  Eos: 0.8%
  Fbg: 213.2 mg/dL
  Hb: 13.1 g/dL
  Ht: 40.2%
  Lym: 79.4%
  MCH: 21.7 pg
  MCHC: 32.6%
  MCV: 66.4 fL
  Mono: 6.2%
  Neu: 14%
  PT: 12.5 s
  Plat: 107.9 x10_4/uL
  RBC: 606.2 x10_4/ul
  Ret: 8.8%
  WBC: 91.5 x10_2/uL
  KIDNEY_L: 0.9 g
  KIDNEY_R: 0.9 g
  KIDNEY_TOTAL: 1.8 g
  LIVER: 8.5 g
  A/G: 2.4
  ALP: 985 IU/L
  ALT: 28 IU/L
  AST: 55.8 IU/L
  BUN: 10.8 mg/dL
  CRE: 0.5 mg/dL
  Ca: 10.8 mg/dL
  Cl: 105.6 meq/L
  DBIL: 0.072 mg/dL
  GLC: 193.6 mg/dL
  IP: 11 mg/dL
  K: 4.8 meq/L
  LDH: 101 IU/L
  Na: 139 meq/L
  PL: 120.8 mg/dL
  RALB: 3.9 g/dL
  TBIL: 0.3 mg/dL
  TC: 67.2 mg/dL
  TG: 43.2 mg/dL
  TP: 5.6 g/dL
  gamma-GTP: 1.4 IU/L
[4]
  TERMINAL_BW: 218.2 g
  APTT: 16 s
  Bas: 0%
  Eos: 0.4%
  Fbg: 225 mg/dL
  Hb: 13 g/dL
  Ht: 38.8%
  Lym: 80.4%
  MCH: 22.5 pg
  MCHC: 33.5%
  MCV: 67.2 fL
  Mono: 6.4%
  Neu: 12.4%
  PT: 11.9 s
  Plat: 100.3 x10_4/uL
  RBC: 578.2 x10_4/ul
  Ret: 8.8%
  WBC: 130.7 x10_2/uL
  KIDNEY_L: 1 g
  KIDNEY_R: 1 g
  KIDNEY_TOTAL: 2 g
  LIVER: 11.5 g
  A/G: 2.1
  ALP: 991.8 IU/L
  ALT: 35 IU/L
  AST: 63.6 IU/L
  BUN: 19.2 mg/dL
  CRE: 0.5 mg/dL
  Ca: 11.3 mg/dL
  Cl: 104.8 meq/L
  DBIL: 0.018 mg/dL
  GLC: 203.8 mg/dL
  IP: 8.4 mg/dL
  K: 5.4 meq/L
  LDH: 130.2 IU/L
  Na: 138.2 meq/L
  PL: 146.6 mg/dL
  RALB: 3.9 g/dL
  TBIL: 0.4 mg/dL
  TC: 79.8 mg/dL
  TG: 96.6 mg/dL
  TP: 5.8 g/dL
  gamma-GTP: 1.4 IU/L
1 mg/kg, 3 h, dose level Low
  TERMINAL_BW: 204.1 g
  APTT: 16.5 s
  Bas: 0%
  Eos: 0.2%
  Fbg: 224.2 mg/dL
  Hb: 13.4 g/dL
  Ht: 40.4%
  Lym: 78.8%
  MCH: 21.6 pg
  MCHC: 33.2%
  MCV: 65.2 fL
  Mono: 8.4%
  Neu: 12.2%
  PT: 11.3 s
  Plat: 105.5 x10_4/uL
  RBC: 619 x10_4/ul
  Ret: 8.6%
  WBC: 119.1 x10_2/uL
  KIDNEY_L: 0.9 g
  KIDNEY_R: 0.9 g
  KIDNEY_TOTAL: 1.9 g
  LIVER: 9.6 g
  A/G: 2
  ALP: 970.8 IU/L
  ALT: 33.4 IU/L
  AST: 60 IU/L
  BUN: 11 mg/dL
  CRE: 0.5 mg/dL
  Ca: 11.4 mg/dL
  Cl: 105.8 meq/L
  DBIL: 0.028 mg/dL
  GLC: 184.2 mg/dL
  IP: 10 mg/dL
  K: 4.8 meq/L
  LDH: 82.2 IU/L
  Na: 139.8 meq/L
  PL: 135.8 mg/dL
  RALB: 3.7 g/dL
  TBIL: 0.3 mg/dL
  TC: 79 mg/dL
  TG: 52.4 mg/dL
  TP: 5.6 g/dL
  gamma-GTP: 1.4 IU/L
1 mg/kg, 6 h, dose level Low
  TERMINAL_BW: 203.2 g
  APTT: 16.9 s
  Bas: 0%
  Eos: 0.4%
  Fbg: 227.8 mg/dL
  Hb: 13.4 g/dL
  Ht: 40.2%
  Lym: 82%
  MCH: 21.8 pg
  MCHC: 33.3%
  MCV: 65.6 fL
  Mono: 5.8%
  Neu: 11.8%
  PT: 12.2 s
  Plat: 96.8 x10_4/uL
  RBC: 613.2 x10_4/ul
  Ret: 9%
  WBC: 116.2 x10_2/uL
  KIDNEY_L: 0.9 g
  KIDNEY_R: 0.9 g
  KIDNEY_TOTAL: 1.9 g
  LIVER: 9 g
  A/G: 2
  ALP: 759.8 IU/L
  ALT: 33.2 IU/L
  AST: 66.6 IU/L
  BUN: 11.2 mg/dL
  CRE: 0.5 mg/dL
  Ca: 10.9 mg/dL
  Cl: 104.6 meq/L
  DBIL: 0.008 mg/dL
  GLC: 188.6 mg/dL
  IP: 10.5 mg/dL
  K: 5.1 meq/L
  LDH: 90.2 IU/L
  Na: 140.8 meq/L
  PL: 142.8 mg/dL
  RALB: 3.7 g/dL
  TBIL: 0.2 mg/dL
  TC: 84 mg/dL
  TG: 41.2 mg/dL
  TP: 5.5 g/dL
  gamma-GTP: 1.4 IU/L
1 mg/kg, 9 h, dose level Low
  TERMINAL_BW: 200.6 g
  APTT: 16.5 s
  Bas: 0%
  Eos: 0.6%
  Fbg: 220.2 mg/dL
  Hb: 13.3 g/dL
  Ht: 40.4%
  Lym: 78.6%
  MCH: 21.9 pg
  MCHC: 32.9%
  MCV: 66.4 fL
  Mono: 6.6%
  Neu: 14.2%
  PT: 12.4 s
  Plat: 99.4 x10_4/uL
  RBC: 608 x10_4/ul
  Ret: 9%
  WBC: 86.7 x10_2/uL
  KIDNEY_L: 0.9 g
  KIDNEY_R: 0.9 g
  KIDNEY_TOTAL: 1.8 g
  LIVER: 8.6 g
  A/G: 2.5
  ALP: 787 IU/L
  ALT: 32 IU/L
  AST: 62.6 IU/L
  BUN: 8.8 mg/dL
  CRE: 0.5 mg/dL
  Ca: 10.6 mg/dL
  Cl: 105.8 meq/L
  DBIL: 0.036 mg/dL
  GLC: 184.6 mg/dL
  IP: 10.2 mg/dL
  K: 4.6 meq/L
  LDH: 76.6 IU/L
  Na: 138.4 meq/L
  PL: 127.4 mg/dL
  RALB: 3.9 g/dL
  TBIL: 0.4 mg/dL
  TC: 72.4 mg/dL
  TG: 39 mg/dL
  TP: 5.5 g/dL
  gamma-GTP: 4.2 IU/L
1 mg/kg, 24 h, dose level Low
  TERMINAL_BW: 218.5 g
  APTT: 18.1 s
  Bas: 0%
  Eos: 1%
  Fbg: 201 mg/dL
  Hb: 12.6 g/dL
  Ht: 37.9%
  Lym: 80.8%
  MCH: 21.8 pg
  MCHC: 33.4%
  MCV: 65.3 fL
  Mono: 5.8%
  Neu: 12.6%
  PT: 12.2 s
  Plat: 94.4 x10_4/uL
  RBC: 580.2 x10_4/ul
  Ret: 9%
  WBC: 138.2 x10_2/uL
  KIDNEY_L: 1 g
  KIDNEY_R: 1 g
  KIDNEY_TOTAL: 2 g
  LIVER: 10.7 g
  A/G: 2.2
  ALP: 961 IU/L
  ALT: 37.6 IU/L
  AST: 68.4 IU/L
  BUN: 15.8 mg/dL
  CRE: 0.5 mg/dL
  Ca: 11.1 mg/dL
  Cl: 104.6 meq/L
  DBIL: 0.018 mg/dL
  GLC: 185.4 mg/dL
  IP: 7.6 mg/dL
  K: 4.8 meq/L
  LDH: 100.6 IU/L
  Na: 138 meq/L
  PL: 144.6 mg/dL
  RALB: 3.9 g/dL
  TBIL: 0.3 mg/dL
  TC: 76 mg/dL
  TG: 98 mg/dL
  TP: 5.7 g/dL
  gamma-GTP: 1.8 IU/L
